Literature values as cited in patent publication US12329849B2, “Method for dyeing keratinous material, comprising the use of an organosilicon compound, a dyeing compound, a sealing reagent, and a polymer-containing post-treatment agent” (Henkel AG & Co. KGaA, priority 2021, dated 2025).

| solubility in water (25° C.) | SMILES | also measured |
| --- | --- | --- |
| more than 7 g/l | O=S(=O)([O-])c1ccc(N=Nc2c(O)ccc3ccccc23)cc1.[Na+] [Acid Orange 7, sodium salt of 4-[(2-hydroxy-1-naphthyl)azo]benzenesulfonate] | – |
| 2500 µg/mL | Nc1cc(S(=O)(=O)[O-])cc2cc(S(=O)(=O)[O-])c(N=Nc3ccccc3)c(O)c12.[Na+].[Na+] [Acid Red 33, disodium salt of 5-amino-4-hydroxy-3-(phenylazo)-naphthalene-2,7-disulfonate] | – |
| – | CCN(Cc1cccc(S(=O)(=O)[O-])c1)c1ccc(C(=C2C=CC(=[N+](CC)Cc3cccc(S(=O)(=O)[O-])c3)C=C2)c2ccccc2S(=O)(=O)[O-])cc1.[Na+].[Na+] [Acid Blue 9] | water solubility (25° C.): more than 20 wt % |
| – | O=C([O-])C1=NN(c2ccc(S(=O)(=O)[O-])cc2)C(=O)C1N=Nc1ccc(S(=O)(=O)[O-])cc1.[Na+].[Na+].[Na+] (centres unmarked) [Acid Yellow 23, trisodium salt of 4,5-dihydro-5-oxo-1-(4-sulfophenyl)-4-((4-sulfophenyl)azo)-1H-pyrazole-3-carboxylic acid] | solubility in water (in words) (at 25° C.): readily soluble |

| SMILES | solubility in water (25° C.) | also measured |
| --- | --- | --- |
| O=C([O-])c1c(Cl)c(Cl)c(Cl)c(Cl)c1-c1c2c(Br)cc(=O)c(Br)c-2oc2c(Br)c(O)cc(Br)c12.O=C([O-])c1c(Cl)c(Cl)c(Cl)c(Cl)c1-c1c2c(Br)cc(=O)c(Br)c-2oc2c(Br)c(O)cc(Br)c12.[Na+].[Na+] [Acid Red 92, disodium salt of 3,4,5,6-tetrachloro-2-(1,4,5,8-tetrabromo-6-hydroxy-3-oxoxanthen-9-yl)benzoic acid] | greater than 10 g/l | – |
